The results in this text go back to PubChem BioAssay AID1996.

Values after ≈ are worked out from the molar mass of the structure shown. Some results are limits rather than exact numbers.

For this data set the following is noted: buffer; pH 7.4; 200.0 µM.
For orientation: solubility (kinetic) means solubility judged after dilution from a stock solution rather than from solid. Consider `Cc1ccc2c(c1)Cc1nc3ccccc3nc1-2`, for which the kinetic solubility was found to be 0.0019 mg/mL (≈ 8.18 µM).
`CCc1cccc(CC)c1-n1c(SCC(=O)N2CCc3ccccc32)nc(O)cc1=O` had a solubility (kinetic) of 0.06 mg/mL (≈ 138 µM).
`O=C(NCC1CCCCC1)c1cccc(Br)c1` showed a kinetic solubility of 0.0022 mg/mL (≈ 7.43 µM).
`CCC1NC(=O)c2ccccc2N1c1cccc(Cl)c1` (centres undefined) showed a kinetic solubility of 0.0298 mg/mL (≈ 104 µM).
To `Cc1nc(N)sc1-c1csc(Nc2cccc(O)c2)n1` belongs 0.0341 mg/mL (≈ 112 µM); to `COCCOC(=O)C1=C(C)NC2(O)c3ccccc3C(=O)C12O` (centres undefined), greater than 0.0479 mg/mL.
The compound `COc1ccc(C2NC(=O)CCC2[N+](=O)[O-])c(OC)c1OC` (centres undefined) gave a solubility (kinetic) greater than 0.0465 mg/mL.
`Cc1ccc(S(=O)(=O)NC(=O)c2ccccc2C)cc1` had a kinetic solubility greater than 0.0434 mg/mL.
Under `COc1cccc(NC(=O)c2ccccc2C(F)(F)F)c1` stands greater than 0.0443 mg/mL; under `COc1ccc(N2CCN(C(=O)c3cccc(S(=O)(=O)N4CCc5ccccc54)c3)CC2)cc1`, 0.0071 mg/mL (≈ 14.9 µM).
Compound `CC(Oc1ccc(Br)cc1Cl)C(=O)Nc1ccncc1` (centres undefined) gave a solubility (kinetic) of 0.0459 mg/mL (≈ 129 µM).
As to `CCC(=O)c1cn(CC(=O)Nc2ccc(C)cc2C)c2ccccc12`, the solubility (kinetic) was less than 0.0004 mg/mL.
To `CC(=O)c1cc(C)ccc1OC(=O)c1ccncc1` belongs 0.0358 mg/mL (≈ 140 µM); to `CC1CCCCC1NC(=O)COc1ncnc2sccc12` (centres undefined), greater than 0.0458 mg/mL; to `c1ccc(CNc2ncnc3scc(-c4cccs4)c23)nc1`, 0.0372 mg/mL (≈ 115 µM).
On to `CC(C(=O)OCC(=O)Nc1ccc(S(N)(=O)=O)cc1)N1C(=O)c2ccccc2C1=O` (centres undefined), for which the kinetic solubility is greater than 0.0647 mg/mL.
Turning to `CCOc1cc(C(=O)OCC(=O)Nc2cccc(S(=O)(=O)NC3=NCCCCC3)c2)cc(OCC)c1OCC`, the kinetic solubility was 0.0242 mg/mL (≈ 43.1 µM).
To `Cc1cccc(NC(=O)c2cc[n+]([O-])cc2)c1C` belongs greater than 0.0363 mg/mL; to `CCOc1ccc(S(=O)(=O)NCc2cccnc2)c2ccccc12`, 0.0385 mg/mL (≈ 112 µM).
Compound `COc1ccc(/C=C2\SC(N)=NC2=O)cc1` came in with a kinetic solubility of 0.0039 mg/mL (≈ 16.6 µM).
The compound `CC(=O)c1cccc(Nc2nc(-c3cccnc3)cs2)c1` yielded a solubility (kinetic) of 0.0009 mg/mL (≈ 3.05 µM).
As to `O=C(O)CN(C1CCCCC1)S(=O)(=O)c1ccc(F)cc1`, the kinetic solubility is greater than 0.0473 mg/mL.
Turning to `O=C(O)Cc1sc(-c2ccccc2)nc1-c1cccs1`, the solubility (kinetic) was greater than 0.0452 mg/mL.
`COc1cc(S(=O)(=O)Nc2ccc3c(c2)C(=O)N(C)C3=O)ccc1NC(C)=O` registered a solubility (kinetic) greater than 0.0605 mg/mL.
Take `COc1ccccc1C(CNc1ncccc1[N+](=O)[O-])N(C)C` (centres undefined): the kinetic solubility is greater than 0.0475 mg/mL.
Under `O=C(CCN1C(=O)C2CC=CCC2C1=O)Nc1ccccc1Cl` (centres undefined) stands greater than 0.0499 mg/mL.
Turning to `Cc1ccc(OCC(O)CNC2CCCC2)c(C)c1.Cl` (centres undefined), the solubility (kinetic) stood at 0.0413 mg/mL.
For `Cc1cnc(C(=O)OCC(=O)C23CC4CC(CC(C4)C2)C3)cn1`, the kinetic solubility is greater than 0.0472 mg/mL.
In turn, `CCOc1ccc(C(=O)NCC(=O)N2CCCC2)cc1` gave a solubility (kinetic) greater than 0.0415 mg/mL.
To `CCOc1ccc(N(CC(=O)N2CCCCCC2)S(=O)(=O)c2ccc(C)cc2)cc1` belongs 0.0236 mg/mL (≈ 54.8 µM).
To `Cn1c(O)c(C=NCCN2CCOCC2)c(=O)[nH]c1=S` belongs greater than 0.0448 mg/mL.
Regarding `COc1ccc(CN2C(=O)c3cccc4cccc(c34)C2=O)cc1`, the solubility (kinetic) turned out to be 0.0009 mg/mL (≈ 2.84 µM).
Turning to `Cc1ccc(-c2csc(NC(=O)Cc3ccc(F)cc3)n2)o1`, the solubility (kinetic) was found to be 0.0125 mg/mL (≈ 39.5 µM).
Under `CO/N=C(/COc1ccc(F)cc1)c1ccc(OC)cc1` stands less than 0.0006 mg/mL; under `O=C(CCC1CCN(Cc2ccc(Cl)cc2)CC1)NC1CC1`, 0.0413 mg/mL (≈ 129 µM); under `NC(=O)C1CCN(CC(=O)Nc2ccccc2N2CCOCC2)CC1`, greater than 0.052 mg/mL.
Compound `COc1ccc(CN2C(=O)c3ccc(C(=O)O)cc3C2=O)cc1` gave a kinetic solubility greater than 0.0467 mg/mL.
To `CCc1cccc(OCC(=O)Nc2c[nH]c(=O)[nH]c2=O)c1` belongs 0.0009 mg/mL (≈ 3.11 µM); to `Cc1ccccc1OC(C)C(=O)Nc1ccc2c(c1)OCO2` (centres undefined), 0.0388 mg/mL (≈ 130 µM).
As for `CC(=O)c1sc(-c2ccc(Cl)cc2)cc1N`, the kinetic solubility was 0.0018 mg/mL (≈ 7.15 µM).
Under `CCOC(=O)C1=C(COC(=O)C2CC(=O)N(CCc3ccccc3)C2)NC(=O)NC1C` (centres undefined) stands greater than 0.0644 mg/mL.
Under `CC(=O)c1ccc(NC(=O)CSc2nc3ccccc3c(=O)n2CCCN2CCOCC2)cc1` stands greater than 0.0721 mg/mL.
`CCOc1ncccc1C(=O)NCC(c1ccccc1)N(C)C` (centres undefined) had a kinetic solubility greater than 0.047 mg/mL.
Regarding `N#CC1(P(=O)(c2ccccc2)c2ccccc2)CCCC1`, the solubility (kinetic) was greater than 0.0443 mg/mL.
In turn, `Cc1nc2ccccc2n1CC(=O)OCC(=O)N1CCC(C)CC1` showed a solubility (kinetic) greater than 0.0494 mg/mL.
To `O=C(CSc1nc2c(c(=O)[nH]1)CCC2)Nc1ccccc1Cl` belongs 0.0088 mg/mL (≈ 26.2 µM); to `O=C(NCc1ccccn1)Nc1cccc(F)c1`, 0.0359 mg/mL (≈ 146 µM); to `Fc1cc(Br)cc(F)c1NC(=S)N1CCOCC1`, 0.0338 mg/mL (≈ 100 µM).
Compound `O=[N+]([O-])c1ccc(CSC2=NCCS2)cc1` returned a kinetic solubility of 0.0161 mg/mL (≈ 63.3 µM).
With `Nc1ccc(Sc2ccccc2Cl)nc1`, the kinetic solubility was greater than 0.0355 mg/mL.
`CC(O)CNCCOc1cccc(Oc2ccccc2)c1.O=C(O)C(=O)O` (centres undefined) returned a solubility (kinetic) of 0.0456 mg/mL.
`O=C1CSc2ccc(C(=O)NCc3ccccn3)cc2N1` gave a kinetic solubility greater than 0.0449 mg/mL.
The compound `O=C(Nc1cc2c3c(c1)CC(=O)N3CCC2)c1ccco1` showed a solubility (kinetic) of 0.0396 mg/mL (≈ 140 µM).
As to `COCCNC(=O)CN1C2CCC1CC(O)(c1cccnc1)C2` (centres undefined), the kinetic solubility is greater than 0.0479 mg/mL.
In turn, `CC1=C/C(=C\C=C(C#N)C#N)N(C)c2ccccc21` returned a kinetic solubility of 0.0008 mg/mL (≈ 3.23 µM).
The compound `Cc1ccc(C2CN(C)CC2C(=O)c2ccc(F)cc2)cc1` (centres undefined) displayed a solubility (kinetic) of 0.0358 mg/mL (≈ 120 µM).
`CSc1ccc(/C=C/C(=O)OCC(=O)N(C)CCC#N)cc1` displayed a solubility (kinetic) of 0.0299 mg/mL (≈ 93.9 µM).
The compound `Cn1c(=O)c2ccccc2n(Cc2cccc(F)c2)c1=O` returned a solubility (kinetic) of 0.0036 mg/mL (≈ 12.7 µM).
In the case of `CC(Sc1nccn1C)C(=O)Nc1ccc(C(N)=O)cc1` (centres undefined), the kinetic solubility was greater than 0.0457 mg/mL.
To `Cc1ccc2c(c1)c1c3n2CCN(CC(N)=O)C3CCC1` (centres undefined) belongs 0.0017 mg/mL (≈ 6 µM).
To `CCOC(=O)COn1c(=O)c(-c2ccccc2)[n+]([O-])c2ccccc21` belongs 0.0352 mg/mL (≈ 103 µM); to `C=CCNC(=O)COC(=O)c1cccnc1Nc1ccccc1F`, 0.0179 mg/mL (≈ 54.4 µM).
With `O=C(Nc1ccccc1)Nc1cccc2ccccc12`, the solubility (kinetic) is 0.0003 mg/mL (≈ 1.14 µM).
Take `Cc1noc(-c2ccccc2)c1NC(=O)Nc1ccccc1`: the solubility (kinetic) was greater than 0.044 mg/mL.
As to `COc1ccc(CC(CN)c2ccccc2)cc1` (centres undefined), the kinetic solubility is 0.0295 mg/mL (≈ 122 µM).
Consider `O=C(Cc1cccc2ccccc12)NCCOc1ccccc1F`, for which the solubility (kinetic) was 0.0037 mg/mL (≈ 11.4 µM).
Under `O=C(O)c1cc(O)ccc1NC(=O)c1cccc2ccccc12` stands greater than 0.0461 mg/mL.
As to `Cc1cc(=O)[nH]c(SCC(=O)NC2CCCc3ccccc32)n1` (centres undefined), the kinetic solubility was 0.0321 mg/mL (≈ 97.4 µM).
`Cc1ccnc(Nc2nc(-c3ccc(O)cc3O)cs2)c1` came in with a kinetic solubility of 0.002 mg/mL (≈ 6.68 µM).
Turning to `Cc1cc(=O)oc2cc(OCC(=O)NC3CCCCC3)ccc12`, the solubility (kinetic) is 0.0075 mg/mL (≈ 23.8 µM).
For `COc1ccc(S(=O)(=O)N2CCN(C)CC2)cc1`, the solubility (kinetic) is greater than 0.0406 mg/mL.
For `Cc1cccc(N(Cc2cc3ccccc3[nH]c2=O)C(=O)c2cccs2)c1`, the kinetic solubility is less than 0.0004 mg/mL.
Compound `COc1cc([N+](=O)[O-])ccc1NC(=O)NCc1cccnc1` came in with a kinetic solubility of 0.017 mg/mL (≈ 56.2 µM).
`COc1ccc(C(=O)NCC(=O)OCC(=O)NCc2ccc3c(c2)OCO3)cc1` gave a solubility (kinetic) greater than 0.0601 mg/mL.
